This is an account of results in ChEMBL document CHEMBL1148052, “Cylindrene, a novel sesquiterpenoid from Imperata cylindrica with inhibitory activity on contractions of vascular smooth muscle” (1994).

Calls of active or inactive are those of the source. No cut-off for these calls is given here.

The test system of assay [1] is Aorta. Briefly: Inhibition of KCl-induced contraction in rabbit aorta at 300 uM. The class given is functional. As to conditions: Oryctolagus cuniculus.
For assay [2], the system named is Aorta. The assay is described as follows: Inhibition of KCl-induced contraction in rabbit aorta at 100 nM. The class given is functional, tissue-based. As to conditions: Oryctolagus cuniculus.

Broadly, the inhibition is the percentage by which the read-out fell short of the control.

Compound `CC(=O)c1cc(C(C)C)c2c(c1)C(C)(O)CC2` (configuration not stated) [CYLINDRENE] gave an inhibition at 300 µM in the assay with Aorta [1] of 40%. In the case of `NC[C@H](O)c1ccc(O)c(O)c1`, the outcome with Aorta [2] was inactive.
